Patent US12180165B2, “Human TLR8-selective agonists” (University of Kansas, priority 2015, dated 2024)
Counter-ions that a name gives are not always drawn. Each block holds one compound with its values, some of them ahead of it.

Legend:
[1] = test system: TLR-2/-3/-4/-5/-7/-9 and NOD-1/NOD-2; assay: TLR-2/-3/-4/-5/-7/-9 and NOD-1/NOD-2 counter-screens (reporter gene assays); format: cell-based, human
Procedure: (§1) HEK293 cells stably co-transfected with the appropriate hTLR (or NOD) and secreted alkaline phosphatase (sAP) were maintained in HEK-BLUE™ Selection medium. Stable expression of secreted alkaline phosphatase (sAP) under control of NF-κB/AP-1 promoters is inducible by appropriate TLR/NOD agonists, and extracellular sAP in the supernatant is proportional to NF-κB induction. Reporter cells were incubated at a density of ˜10^5 cells/ml in a volume of 80 μl/well, in 384-well, flat-bottomed cell culture-treated microtiter plates in the presence of graded concentrations of stimuli. sAP was assayed spectrophotometrically using an alkaline phosphatase-specific chromogen (present in HEK-detection medium as supplied by InvivoGen) at 620 nm.

human TLR8 [2] = target: T1, human TLR8 (Homo sapiens, UniProt Q9NR97); assay: Human TLR8-specific reporter gene assay (NF-κB induction, sAP readout in HEK293 cells); format: cell-based; conditions: EC50 in human TLR8-specific reporter gene assay
T1 construct: expressed in transfected cells; host or cells: HEK293
T1 sequence (Q9NR97 27-1041): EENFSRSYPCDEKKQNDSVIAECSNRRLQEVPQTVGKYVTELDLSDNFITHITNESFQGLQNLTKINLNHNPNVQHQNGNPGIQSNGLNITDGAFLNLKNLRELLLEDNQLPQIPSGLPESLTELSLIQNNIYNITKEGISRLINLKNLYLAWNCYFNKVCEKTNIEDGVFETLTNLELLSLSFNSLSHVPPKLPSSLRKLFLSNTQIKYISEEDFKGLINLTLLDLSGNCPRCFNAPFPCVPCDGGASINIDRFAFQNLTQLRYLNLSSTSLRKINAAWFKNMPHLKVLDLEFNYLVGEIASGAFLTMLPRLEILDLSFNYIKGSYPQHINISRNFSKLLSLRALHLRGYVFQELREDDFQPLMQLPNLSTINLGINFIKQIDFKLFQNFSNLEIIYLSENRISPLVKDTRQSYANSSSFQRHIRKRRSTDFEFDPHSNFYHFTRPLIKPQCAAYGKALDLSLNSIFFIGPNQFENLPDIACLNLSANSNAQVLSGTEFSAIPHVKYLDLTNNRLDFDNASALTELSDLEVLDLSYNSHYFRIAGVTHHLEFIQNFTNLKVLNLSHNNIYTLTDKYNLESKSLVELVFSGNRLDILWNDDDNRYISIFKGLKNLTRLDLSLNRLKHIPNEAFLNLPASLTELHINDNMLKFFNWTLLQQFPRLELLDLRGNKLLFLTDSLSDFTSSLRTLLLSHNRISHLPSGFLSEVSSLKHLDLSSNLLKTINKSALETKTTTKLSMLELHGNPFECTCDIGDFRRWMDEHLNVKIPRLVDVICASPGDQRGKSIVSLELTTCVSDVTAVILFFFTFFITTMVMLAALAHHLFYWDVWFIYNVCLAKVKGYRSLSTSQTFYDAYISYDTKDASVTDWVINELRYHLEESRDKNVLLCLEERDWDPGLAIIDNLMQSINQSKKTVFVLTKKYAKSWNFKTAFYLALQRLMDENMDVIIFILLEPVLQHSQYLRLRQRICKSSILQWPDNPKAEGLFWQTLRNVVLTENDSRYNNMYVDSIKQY
Procedure: as §1

CD14+ monocytes = assay: Eight-color flow cytometry of activation markers in human whole blood; format: cell-based; conditions: FIG. 5
Procedure: Eight-color Flow-cytometric immunostimulation experiments: Cell surface marker upregulation was determined by flow cytometry using protocols as described previously (Hood, J. D. et al. Hum. Vaccin. 2010, 6, 332-335), and modified for rapid-throughput. […] Serial dilutions of selected compounds were performed using a Bio-Tek Precision 2000 XS liquid handler in sterile 96-well polypropylene plates, to which were added 100 mL aliquots of anticoagulated whole human blood. The plates were incubated at 37° C. for 16 h. Negative (endotoxin free water) controls were included in each experiment. The following fluorochrome-conjugated antibodies were used: CD3-PE, CD19-FITC, CD56-APC (eBioscience, San Diego, CA), CD14-V500, CD28 PE-Cy7, CD40 V450, CD80 APC-H7, CD86 PerCP-Cy5.5 (Becton-Dickinson Biosciences, San Jose, CA). Following incubation, 2.5 μg of each antibody was added to wells with a liquid handler, and incubated at 4° C. in the dark for 60 min. […] CD28, CD40, CD80, and CD86 activation in the major leukocyte populations, viz., natural killer lymphocytes (NK cells: CD3-CD56+), cytokine-induced killer phenotype (CIK cells: CD3+CD56+), B lymphocytes (CD19+CD3-), T lymphocytes (CD3+CD56-), monocytes (CD14+), polymorphonuclear cells (CD14-) were quantified using FlowJo v 7.0 software (Treestar, Ashland, OR).

human PBMCs = assay: Cytokine/chemokine induction in human peripheral blood mononuclear cells (multiplexed bead array); format: cell-based; conditions: human PBMCs as well as whole human blood, FIG. 3
Text: Immunoassays for cytokines.

human TLR8 [3] = target: T1, human TLR8; conditions: reference compounds, literature values (Kokatla et al.); read-out: TLR8 EC50 (previously reported); cited from earlier work

Compound: CCCCCc1c(N)nc2ccccc2c1Cc1cccc(CN)c1 [Compound 9a, 4-(3-(Aminomethyl)benzyl)-3-pentylquinolin-2-amine dihydrochloride]
specificity for TLR8 [1]: retained specificity for TLR8

Compound: CCCCCc1c(N)nc2ccccc2c1Cc1ccc(CN)cc1 [Compound 9b, 4-(4-(Aminomethyl)benzyl)-3-pentylquinolin-2-amine dihydrochloride]
specificity for TLR8 [1]: retained specificity for TLR8

Compound: CCCCCc1cc2c(Cc3cccc(C(N)=O)c3)cccc2nc1N [Compound 18d, 3-((2-Amino-3-pentylquinolin-5-yl)methyl)benzamide]
TLR8 Agonistic Activity (nM) (human TLR8 [2]): Inactive

Compound: CCCCCc1cc2c(CCCCCN)cccc2nc1N [Compound 34b, 5-(5-Aminopentyl)-3-pentylquinolin-2-amine]
CD40 upregulation (CD14+ monocytes): upregulate CD40 | CD80 expression (CD14+ monocytes): strongly induces CD80 expression | induction of proinflammatory cytokines including TNF-α, IL-12 and IFN-γ (human PBMCs): induction of a specific set of proinflammatory cytokines was observed

Compound: C2-butyl furo[2,3-c]quinoline
EC50 (human TLR8 [3]): 1600 nM

The next lines start with the values.

TLR8 Agonistic Activity (nM) (human TLR8 [2]): Inactive
Compound: CCCCCc1cc2c(Cc3ccccc3)cccc2nc1N [Compound 17d, 5-Benzyl-3-pentylquinolin-2-amine]

TLR8 Agonistic Activity (nM) (human TLR8 [2]): Inactive
Compound: CCCCCc1cc2c(-c3cccc(CN)c3)cccc2nc1N [Compound 20a, 5-(3-(Aminomethyl)phenyl)-3-pentylquinolin-2-amine]

TLR8 Agonistic Activity (nM) (human TLR8 [2]): Inactive
Compound: CCCCCc1cc2cccc(CCCCN)c2nc1N [Compound 37, 8-(4-Aminobutyl)-3-pentylquinolin-2-amine]
